Read-outs that look alike come from different tables or passages of the source.
Key:
P. aeruginosa = assay: Bactericidal test: CFU count after incubation in PBS buffer; assay type: cell-based, Pseudomonas aeruginosa
[1] = tested on: Herpes Simplex 1 virus (HSV); assay type: cell-based; settings: Ibuprofen at 50 mM, virus incubated 60 minutes at 37° C.
[2] = tested on: BVDV bovine diarrhea virus; assay type: cell-based; settings: Ibuprofen at 50 mM, virus incubated 60 minutes at 37° C.
[3] = tested on: vesicular stomatitis virus (VSV); assay type: cell-based; settings: Ibuprofen at 50 mM, virus incubated 60 minutes at 37° C.
[4] = tested on: Rubella virus strain (MV); assay type: cell-based; settings: Ibuprofen at 50 mM, virus incubated 60 minutes at 37° C.
[5] = solubilised in water; cited from earlier work
Burkhordelia cepacia = assay type: cell-based; settings: 4 h incubation at 37° C., control 130,000, Example 10
Method: In this case, tests were run on a non-nutritive liquid carrier (buffer solution) wherein the antimicrobial agent is mixed with quantified inocula of pure bacterial cultures. After different incubation times, the material is seeded on agar plates to perform quantification assays on the number of bacterias surviving the treatment.
When the time for each assay finished, aliquots of 100 uL and decimal dilutions of each tube which were seeded on petri dishes for the direct count of colony forming units (CFU) in Mueller Hinton agar (MHA), using pour-plating or spread-plating standard methods.
During testing, the medium was stored in thermostatic bath between 45-50° C. because the seeding technique requires imbibing and integrating bacteria in the medium.

[6] = tested on: artificial biofilm of P. aeruginosa; assay: Antimicrobial effect on artificial biofilm (2% alginate solution); assay type: cell-based, Pseudomonas aeruginosa; settings: Biofilm (2% alginate) + ionic strength (1 M NaCl), 4 hours at 37° C., control 2,000,000, Example 21
Method: Work consisted of incubating bacterial populations of a known load in terms of CFU/mL with the compounds mentioned in different molar concentrations. In vitro test batteries were organized at different doses or concentrations and in 1.5 mL Eppendorf tubes without the addition of culture medium. To this purpose, a PBS 100 mM phosphate buffer was used to maintain physiological conditions throughout the period of each test at 37° C. […] Each plate was added with 5 uL of a solution of 2,3,5-metabolic dye triphenyltetrazolium of chloride (TTC) 1% to enhance the contrast of colonies. Plates were incubated in inverted position, in a culture stove for 24-48 hours at 37° C. and subsequently the direct count was done, adjusted by dilution factors and seeding to report results in terms of CFU/mL. […] Treatments lasted 4 hours at 37° C.

CC(C)Cc1ccc(C(C)C(=O)O)cc1 (centres unmarked) [IBU-H, PROTONATED IBUPROFEN]
P. aeruginosa (UFC/mL ± 10) (P. aeruginosa; IBU 10 mM, 4 h at 37° C., control 1,700,000, Example 4): 480,000 UFC/mL
P. aeruginosa (UFC/mL ± 10) (P. aeruginosa; IBU 20 mM, 4 h at 37° C., control 1,700,000, Example 4): 200,000 UFC/mL
P. aeruginosa (UFC/mL ± 10) (P. aeruginosa; IBU 50 mM, 4 h at 37° C., control 1,700,000, Example 4): 1000 UFC/mL
P. aeruginosa (UFC/mL ± 10) (P. aeruginosa; IBU 100 mM, 4 h at 37° C., control 1,700,000, Example 4): 10 UFC/mL

CC(C)Cc1ccc(C(C)C(=O)O)cc1 (centres unmarked) [Ibuprofen, ibuprofen]
Reduction of viral level [1]: >6.9 TCID50 mL-1
Reduction of viral level [2]: >6.5 TCID50 mL-1
Reduction of viral level [3]: >7.7 TCID50 mL-1
Reduction of viral level [4]: >5.0 TCID50 mL-1
critical micelle concentration (CMC) [5]: about 180 mM

[Cl-].[Na+] [NaCl]
P. aeruginosa (UFC/mL ± 10) (P. aeruginosa; NaCl 0.01 M, 4 hours at 37° C., control 2,000,000, Example 11): 2,000,000 UFC/mL
P. aeruginosa (UFC/mL ± 10) (P. aeruginosa; NaCl 0.025 M, 4 hours at 37° C., control 2,000,000, Example 11): 2,000,000 UFC/mL
P. aeruginosa (UFC/mL ± 10) (P. aeruginosa; NaCl 0.1 M, 4 hours at 37° C., control 2,000,000, Example 11): 2,000,000 UFC/mL
P. aeruginosa (UFC/mL ± 10) (P. aeruginosa; NaCl 0.25 M, 4 hours at 37° C., control 2,000,000, Example 11): 1,800,000 UFC/mL
P. aeruginosa (UFC/mL ± 10) (P. aeruginosa; NaCl 0.5 M (line between 0.025 and 0.1), 4 hours at 37° C., control 2,000,000, Example 11): 2,000,000 UFC/mL
P. aeruginosa (UFC/mL ± 10) (P. aeruginosa; NaCl 0.5 M (line between 0.25 and 1), 4 hours at 37° C., control 2,000,000, Example 11): 1,600,000 UFC/mL
P. aeruginosa (UFC/mL ± 10) (P. aeruginosa; NaCl 1 M, 4 hours at 37° C., control 2,000,000, Example 11): 1,000,000 UFC/mL

COc1ccc2cc([C@H](C)C(=O)O)ccc2c1 [Naproxen]
B. cepacia (UFC/mL ± 10) (Burkhordelia cepacia; Naproxen 10 mM): 125,000 UFC/mL
B. cepacia (UFC/mL ± 10) (Burkhordelia cepacia; Naproxen 25 mM): 38,000 UFC/mL
B. cepacia (UFC/mL ± 10) (Burkhordelia cepacia; Naproxen 50 mM): 31,000 UFC/mL
B. cepacia (UFC/mL ± 10) (Burkhordelia cepacia; Naproxen 100 mM): 1,300 UFC/mL

NC[C@H]1O[C@H](O[C@H]2[C@H](O)[C@@H](O[C@H]3O[C@H](CO)[C@@H](O)[C@H](N)[C@H]3O)[C@H](N)C[C@@H]2N)[C@H](N)C[C@@H]1O [Tobramycin, tobramycin]
P. aeruginosa (UFC/mL ± 10) (P. aeruginosa; Tobramycin 0.25 mM with ClNa (1M), 4 h at 37° C., control 1,000,000, Example 20): 400,000 UFC/mL
P. aeruginosa (UFC/mL ± 10) (P. aeruginosa; Tobramycin 1 mM with ClNa (1M), 4 h at 37° C., control 1,000,000, Example 20): 10 UFC/mL
P. aeruginosa (UFC/mL ± 10) (P. aeruginosa; Tobramycin 1 mM, 1 hour, 37° C., control 2,000,000, Example 19): 1,000,000 UFC/mL
P. aeruginosa (UFC/mL ± 10) (P. aeruginosa; Tobramycin 1 mM, 4 hours, 37° C., control 2,000,000, Example 19): 30,000 UFC/mL
P. aeruginosa (UFC/mL ± 10) (P. aeruginosa; Tobramycin 1 mM, O.N., 37° C., control 2,000,000, Example 19): 30,000 UFC/mL
P. aeruginosa (UFC/mL ± 10) (P. aeruginosa; Tobramycin 2.5 mM, 1 hour, 37° C., control 2,000,000, Example 19): 60,000 UFC/mL
P. aeruginosa (UFC/mL ± 10) (P. aeruginosa; Tobramycin 2.5 mM, 4 hours, 37° C., control 2,000,000, Example 19): 20,000 UFC/mL
P. aeruginosa (UFC/mL ± 10) (P. aeruginosa; Tobramycin 2.5 mM, O.N., 37° C., control 2,000,000, Example 19): 10 UFC/mL
P. aeruginosa (UFC/mL ± 10) (P. aeruginosa; Tobramycin 5 mM with ClNa (1M), 4 h at 37° C., control 1,000,000, Example 20): 10 UFC/mL
P. aeruginosa (UFC/mL ± 10) (P. aeruginosa; Tobramycin 5 mM, 1 hour, 37° C., control 2,000,000, Example 19): 30,000 UFC/mL
P. aeruginosa (UFC/mL ± 10) (P. aeruginosa; Tobramycin 5 mM, 4 hours, 37° C., control 2,000,000, Example 19): 1,000 UFC/mL
P. aeruginosa (UFC/mL ± 10) (P. aeruginosa; Tobramycin 5 mM, O.N., 37° C., control 2,000,000, Example 19): 10 UFC/mL
P. aeruginosa (UFC/mL ± 10) (P. aeruginosa; Tobramycin 10 mM with ClNa (1M), 4 h at 37° C., control 1,000,000, Example 20): 10 UFC/mL
P. aeruginosa (UFC/mL ± 10) (P. aeruginosa; Tobramycin 10 mM, 1 hour, 37° C., control 2,000,000, Example 19): 1,000 UFC/mL
P. aeruginosa (UFC/mL ± 10) (P. aeruginosa; Tobramycin 10 mM, 4 hours, 37° C., control 2,000,000, Example 19): 10 UFC/mL
P. aeruginosa (UFC/mL ± 10) (P. aeruginosa; Tobramycin 10 mM, O.N., 37° C., control 2,000,000, Example 19): 10 UFC/mL
P. aeruginosa (UFC/mL ± 10) ([6]; 5 mM): 10 UFC/mL
P. aeruginosa (UFC/mL ± 10) ([6]; 10 mM): 10 UFC/mL
